Experimental data reported in PubChem BioAssay AID1919004 (Molecular Pharmacology Branch, DTP, NCI, 2023).

System: 883617-216-R-J1-PDC complex spheroids, growth, % test/control
Test: Anticancer human tumor 883617-216-R-J1-PDC patient-derived bladder carcinoma cell line growth inhibition [AhR]
Details: for IC50: curve of first compound; for viability, T/C: stronger effect = lower value; active = viability on the fitted dose curve at most 10% of control; inactive = the rest
Procedure, shortened: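 Spheroids combined tumor cells with HUVEC endothelial cells and human MSCs as stroma. AhR antagonists were paired with standard or investigational drugs, each dosed in half-log steps down from near clinical Cmax, or from 10 microM where Cmax was unknown.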

[1] = second compound 0.1 µM, first compound 0.0316 µM
[2] = second compound 0.1 µM, first compound 0.1 µM
[3] = second compound 0.1 µM, first compound 0.316 µM
[4] = second compound 0.1 µM, first compound 1 µM
[5] = second compound 0.1 µM, first compound 3.16 µM
[6] = second compound 0.1 µM, first compound 10 µM
[7] = second compound 0.316 µM, first compound 0.0316 µM
[8] = second compound 0.316 µM, first compound 0.1 µM
[9] = second compound 0.316 µM, first compound 0.316 µM
[10] = second compound 0.316 µM, first compound 1 µM
[11] = second compound 0.316 µM, first compound 3.16 µM
[12] = second compound 0.316 µM, first compound 10 µM
[13] = second compound 1 µM, first compound 0.0316 µM
[14] = second compound 1 µM, first compound 0.1 µM
[15] = second compound 1 µM, first compound 0.316 µM
[16] = second compound 1 µM, first compound 1 µM
[17] = second compound 1 µM, first compound 3.16 µM
[18] = second compound 1 µM, first compound 10 µM
[19] = second compound 3.16 µM, first compound 0.0316 µM
[20] = second compound 3.16 µM, first compound 0.1 µM
[21] = second compound 3.16 µM, first compound 0.316 µM
[22] = second compound 3.16 µM, first compound 1 µM
[23] = second compound 3.16 µM, first compound 3.16 µM
[24] = second compound 3.16 µM, first compound 10 µM
[25] = second compound 10 µM, first compound 0.0316 µM
[26] = second compound 10 µM, first compound 0.1 µM
[27] = second compound 10 µM, first compound 0.316 µM
[28] = second compound 10 µM, first compound 1 µM
[29] = second compound 10 µM, first compound 3.16 µM
[30] = second compound 10 µM, first compound 10 µM
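Note: exposure lasted 7 days after dosing on day 3 of spheroid growth.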

CC(C)CC(NC(=O)C(Cc1ccccc1)NC(=O)c1cnccn1)B(O)O (stereo not given) + Cc1ccccc1N=Nc1ccc(NC(=O)c2ccnn2C)c(C)c1
7.89 nM: IC50 (second compound 0.316 µM)
inactive: viability, T/C (second compound 0.1 µM, first compound 0.000949 µM) 85.9% | viability, T/C (second compound 0.1 µM, first compound 0.003 µM) 97.5% | viability, T/C (second compound 0.1 µM, first compound 0.00949 µM) 39.1% | viability, T/C (second compound 0.316 µM, first compound 0.000949 µM) 90.5% | viability, T/C (second compound 0.316 µM, first compound 0.003 µM) 92.7% | viability, T/C (second compound 0.316 µM, first compound 0.00949 µM) 42.1% | viability, T/C (second compound 1 µM, first compound 0.000949 µM) 84.8% | viability, T/C (second compound 1 µM, first compound 0.003 µM) 89.4% | viability, T/C (second compound 1 µM, first compound 0.00949 µM) 40.9% | viability, T/C (second compound 3.16 µM, first compound 0.000949 µM) 79.4% | viability, T/C (second compound 3.16 µM, first compound 0.003 µM) 88.2% | viability, T/C (second compound 3.16 µM, first compound 0.00949 µM) 43.8% | viability, T/C (second compound 10 µM, first compound 0.000949 µM) 78% | viability, T/C (second compound 10 µM, first compound 0.003 µM) 80.8% | viability, T/C (second compound 10 µM, first compound 0.00949 µM) 51.9%
active: viability, T/C (second compound 0.1 µM, first compound 0.03 µM) 0.08% | viability, T/C (second compound 0.1 µM, first compound 0.0949 µM) 0.03% | viability, T/C (second compound 0.1 µM, first compound 0.3 µM) 0.11% | viability, T/C (second compound 0.316 µM, first compound 0.03 µM) 0.06% | viability, T/C (second compound 0.316 µM, first compound 0.0949 µM) 0.05% | viability, T/C (second compound 0.316 µM, first compound 0.3 µM) 0.11% | viability, T/C (second compound 1 µM, first compound 0.03 µM) 0.08% | viability, T/C (second compound 1 µM, first compound 0.0949 µM) 0.03% | viability, T/C (second compound 1 µM, first compound 0.3 µM) 0.1% | viability, T/C (second compound 3.16 µM, first compound 0.03 µM) 0.11% | viability, T/C (second compound 3.16 µM, first compound 0.0949 µM) 2.06% | viability, T/C (second compound 3.16 µM, first compound 0.3 µM) 0.76% | viability, T/C (second compound 10 µM, first compound 0.03 µM) 0.17% | viability, T/C (second compound 10 µM, first compound 0.0949 µM) 0.62% | viability, T/C (second compound 10 µM, first compound 0.3 µM) 0.21%
7.93 nM: IC50 (second compound 3.16 µM)
7.48 nM: IC50 (second compound 0.1 µM)
9.89 nM: IC50 (second compound 10 µM)
7.56 nM: IC50 (second compound 1 µM)

COc1cc(Nc2ncc3c(n2)-c2ccc(Cl)cc2C(c2c(F)cccc2OC)=NC3)ccc1C(=O)O + Cc1ccccc1N=Nc1ccc(NC(=O)c2ccnn2C)c(C)c1
> 10000 nM: IC50 (second compound 0.1 µM) | IC50 (second compound 0.316 µM) | IC50 (second compound 1 µM) | IC50 (second compound 3.16 µM) | IC50 (second compound 10 µM)
inactive: viability, T/C [1] 83.3% | viability, T/C [2] 78.7% | viability, T/C [3] 74.5% | viability, T/C [4] 63.2% | viability, T/C [5] 71.1% | viability, T/C [6] 63.6% | viability, T/C [7] 72.7% | viability, T/C [8] 83.1% | viability, T/C [9] 64.6% | viability, T/C [10] 62.6% | viability, T/C [11] 66.3% | viability, T/C [12] 63.2% | viability, T/C [13] 73.9% | viability, T/C [14] 73.7% | viability, T/C [15] 67.2% | viability, T/C [16] 72% | viability, T/C [17] 63.7% | viability, T/C [18] 53.7% | viability, T/C [19] 67.4% | viability, T/C [20] 76.3% | viability, T/C [21] 69.6% | viability, T/C [22] 62.1% | viability, T/C [23] 67% | viability, T/C [24] 56.4% | viability, T/C [25] 68.9% | viability, T/C [26] 67.7% | viability, T/C [27] 67.8% | viability, T/C [28] 61.3% | viability, T/C [29] 58.7% | viability, T/C [30] 50.8%

NS(=O)(=O)OCC1CC(n2ccc3c(NC4CCc5ccccc54)ncnc32)CC1O (stereo not given) + Cc1ccccc1N=Nc1ccc(NC(=O)c2ccnn2C)c(C)c1
2690 nM: IC50 (second compound 10 µM)
2350 nM: IC50 (second compound 0.316 µM)
2480 nM: IC50 (second compound 1 µM) | IC50 (second compound 3.16 µM)
inactive: viability, T/C [1] 143% | viability, T/C [2] 184% | viability, T/C [3] 253% | viability, T/C [4] 137% | viability, T/C [5] 37.4% | viability, T/C [6] 18.3% | viability, T/C [7] 131% | viability, T/C [8] 173% | viability, T/C [9] 240% | viability, T/C [10] 119% | viability, T/C [11] 30.9% | viability, T/C [12] 20.6% | viability, T/C [13] 127% | viability, T/C [14] 156% | viability, T/C [15] 256% | viability, T/C [16] 125% | viability, T/C [17] 39.3% | viability, T/C [18] 20.9% | viability, T/C [19] 121% | viability, T/C [20] 146% | viability, T/C [21] 233% | viability, T/C [22] 128% | viability, T/C [23] 37.4% | viability, T/C [24] 18.5% | viability, T/C [25] 118% | viability, T/C [26] 179% | viability, T/C [27] 210% | viability, T/C [28] 125% | viability, T/C [29] 43.6% | viability, T/C [30] 17.4%
2500 nM: IC50 (second compound 0.1 µM)

O=C(C=Cc1cccc(S(=O)(=O)Nc2ccccc2)c1)NO + Cc1ccccc1N=Nc1ccc(NC(=O)c2ccnn2C)c(C)c1
1580 nM: IC50 (second compound 10 µM)
1370 nM: IC50 (second compound 1 µM)
1530 nM: IC50 (second compound 3.16 µM)
active: viability, T/C [6] 2.17% | viability, T/C [12] 2.44% | viability, T/C [18] 1.92% | viability, T/C [24] 1.87% | viability, T/C [30] 2.57%
inactive: viability, T/C [1] 86.6% | viability, T/C [2] 80% | viability, T/C [3] 77.1% | viability, T/C [4] 56.6% | viability, T/C [5] 36.6% | viability, T/C [7] 89.2% | viability, T/C [8] 88.1% | viability, T/C [9] 77.6% | viability, T/C [10] 68% | viability, T/C [11] 32% | viability, T/C [13] 76.7% | viability, T/C [14] 96.8% | viability, T/C [15] 69.1% | viability, T/C [16] 56.8% | viability, T/C [17] 31.2% | viability, T/C [19] 70.9% | viability, T/C [20] 87.2% | viability, T/C [21] 73.3% | viability, T/C [22] 62.9% | viability, T/C [23] 28.2% | viability, T/C [25] 74.6% | viability, T/C [26] 76.3% | viability, T/C [27] 68.1% | viability, T/C [28] 63.1% | viability, T/C [29] 32%
1730 nM: IC50 (second compound 0.316 µM)
1570 nM: IC50 (second compound 0.1 µM)
